Where a name gives a salt, the structure may show the parent alone.
These compounds were tested against T1, OR51E1 olfactory receptor (Homo sapiens, UniProt Q8TCB6) (assay: Inhibitory dose-response assay in a cell line expressing the butyric acid olfactory receptor OR51E1). Conditions: highly stringent screening conditions; cells treated with 67 μM butyric acid (EC94); read-out: calculated IC50, inhibitor of the butyric acid olfactory receptor OR51E1.
T1 construct: expressed in transfected cells
T1 sequence (Q8TCB6 1-318): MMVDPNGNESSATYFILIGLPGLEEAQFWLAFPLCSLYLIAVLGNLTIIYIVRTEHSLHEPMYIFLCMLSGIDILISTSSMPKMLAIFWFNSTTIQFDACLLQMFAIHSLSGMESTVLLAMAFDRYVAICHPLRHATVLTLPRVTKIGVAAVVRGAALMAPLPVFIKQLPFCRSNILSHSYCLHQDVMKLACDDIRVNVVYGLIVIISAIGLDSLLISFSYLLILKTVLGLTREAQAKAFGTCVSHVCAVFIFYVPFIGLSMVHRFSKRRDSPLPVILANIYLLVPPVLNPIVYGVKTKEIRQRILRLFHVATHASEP
Type: cell-based

IC50 [µM]	SMILES
45.2	CC(=O)O[C@@H]1C(C)(C)CCC[C@]12CC=C(C)C[C@H]2C (racemic) [Compound 1, (1RS,6RS,11RS)-2,2,9,11-tetramethylspiro[5.5]undec-8-en-1-yl acetate]
68.6	CC(=O)O[C@H]([C@H]1CCCC[C@@H]1C)C(C)(C)C (racemic) [Compound 14, (1RS)-2,2-dimethyl-1-[(1SR,2SR)-2-methylcyclohexyl]propyl acetate]
18.6	CC(=O)OC1C(C)(C)CCCC12CC(C)=C(C)C2 (centres unmarked) [Compound 2, (2,3,9,9-tetramethylspiro[4.5]dec-2-en-10-yl) acetate]
4.74	CC(=O)OC1C(C)(C)CCCC12C(C)C=CCC2C (centres unmarked) [Compound 3, (1,5,10,10-tetramethylspiro[5.5]undec-3-en-11-yl) acetate]
46.9	CC1CC=CCC12CCCC(C)(C)C2OC=O (centres unmarked) [Compound 5, (5,10,10-trimethylspiro[5.5]undec-2-en-11-yl) formate]
78.1	CC(=O)OC1C(C)(C)CCCC12CC=C(C)CC2C (centres unmarked) [Compound 6, (3,5,10,10-tetramethylspiro[5.5]undec-2-en-11-yl) acetate]
84.3	CC(=O)OC1C(C)(C)CCCC12CC=CC2 (centres unmarked) [Compound 7, (9,9-dimethylspiro[4.5]dec-2-en-10-yl) acetate]
193	COC1C(C)(C)CCCC12CC=CC2 (centres unmarked) [Compound 8, 10-methoxy-9,9-dimethylspiro[4.5]dec-2-ene]
805	CC1CCCCC12CCCCC2O (centres unmarked) [Compound 12, 11-methylspiro[5.5]undecan-5-ol]
43.4	CC(=O)OC(C1C(C)C=C(C)CC1C)C(C)(C)C (centres unmarked) [Compound 17, [2,2-dimethyl-1-(2,4,6-trimethylcyclohex-3-en-1-yl)propyl]acetate]

Same assay, conditions: table; butyric acid at EC80, EC87, EC90, or EC100; read-out: IC50

IC50 [µM]	SMILES
170	CC(=O)O[C@H]([C@H]1CCCC[C@@H]1C)C(C)(C)C (racemic) [Compound 14, (1RS)-2,2-dimethyl-1-[(1SR,2SR)-2-methylcyclohexyl]propyl acetate]

Reference: patent US12180434B2, “Spiro compounds as malodor counteracting ingredients” (Firmenich SA, priority 2017, dated 2024)
